Test results as given in paper PMC9838390, “Discovery and biosynthesis of karnamicins as angiotensin converting enzyme inhibitors” (Nature Communications, 2023).

System: KnmB2
Test: Hydrogen peroxide formation assay of KnmB2 and variants
Format: biochemical, L. rhizosphaerae NEAU-A2
Protocol: Hydrogen peroxide formation assay and NADPH oxidation
The hydrogen peroxide formed from KnmB1, KnmB2 and their variants were measured using the Hydrogen Peroxide Assay Kit (Beyotime Industrial Co. Ltd, Shanghai, China)4-5. 5–100 µL of enzyme reaction mixture was added to 100 µL of working reagent (S0038-1). The mixture was incubated for 30 min at 25 °C, at which time the absorbance at 560 nm was measured by NanoDrop 2000c (Fisher Scientific). […]
Spectral data for new compounds […]
Supplementary Figure 131. H2O2 generation and NADPH oxidation for KnmB2, KnmB1 and their variants. (a) Hydrogen peroxide formation of KnmB2 and variants. […]
(1 picture or pasted object on this page, not shown here) […]
H2O2 generation for KnmB2 and variants in the presence 24 or 32. Reaction conditions (h-j) for KnmB2 and their variants: 50 mM Tris-HCl buffer (pH 7.5), 0.15 mM NADPH, 2 μM KnmB2 or variants, or 0.1 mM substrate 24/32. Values are the means ± SD of n = 3 independent experiments, except for KnmB2+24 (T = 40 min), KnmB2-N219D+24 (T = 4 min), KnmB2-Y215F+24 (T= 1 min and 3 min) in i and j, and KnmB2+32 (T= 8 min) in j (n = 2). Source data are provided as a Source Data file. […]

CC(C)CCCCc1nc(-c2cc(O)cc(C(N)=O)n2)cs1 [Compound 24]
hydrogen peroxide formation of KnmB2 (absorbance UV λ=560 nm), average value (Fig. S131a, 1 mM NADPH, 16 μM KnmB2, 0.1 mM compound, 30 °C, 3 h, average of 3): 0.5988 | H2O2 generation, average value (KnmB2+24, Time 0): 0.0000 µM | H2O2 generation, average value (KnmB2+24, Time 1): 7.6218 µM | H2O2 generation, average value (KnmB2+24, Time 2): 12.4635 µM | H2O2 generation, average value (KnmB2+24, Time 3): 16.9204 µM | H2O2 generation, average value (KnmB2+24, Time 4): 22.1791 µM | H2O2 generation, average value (KnmB2+24, Time 5): 26.8239 µM | H2O2 generation, average value (KnmB2+24, Time 8): 38.8438 µM | H2O2 generation, average value (KnmB2+24, Time 10): 44.6588 µM | H2O2 generation, average value (KnmB2+24, Time 15): 53.6376 µM | H2O2 generation, average value (KnmB2+24, Time 20): 56.0339 µM | H2O2 generation, average value (KnmB2+24, Time 30): 65.5374 µM | H2O2 generation, average value (KnmB2+24, Time 40): 57.4770 µM | H2O2 generation, average value (KnmB2+24, Time 60): 60.9452 µM | H2O2 generation, average value (KnmB2-N219D+24, Time 0): 0.0000 µM | H2O2 generation, average value (KnmB2-N219D+24, Time 2): 1.0964 µM | H2O2 generation, average value (KnmB2-N219D+24, Time 4): 1.8460 µM | H2O2 generation, average value (KnmB2-N219D+24, Time 5): 1.9569 µM | H2O2 generation, average value (KnmB2-N219D+24, Time 8): 2.8926 µM | H2O2 generation, average value (KnmB2-N219D+24, Time 10): 3.8614 µM | H2O2 generation, average value (KnmB2-N219D+24, Time 15): 5.8462 µM | H2O2 generation, average value (KnmB2-N219D+24, Time 20): 7.3014 µM | H2O2 generation, average value (KnmB2-N219D+24, Time 30): 11.0201 µM | H2O2 generation, average value (KnmB2-N219D+24, Time 40): 14.2037 µM | H2O2 generation, average value (KnmB2-N219D+24, Time 60): 17.9462 µM | H2O2 generation, average value (KnmB2-Y215F+24, Time 0): 0.0000 µM | H2O2 generation, average value (KnmB2-Y215F+24, Time 1): 2.6203 µM | H2O2 generation, average value (KnmB2-Y215F+24, Time 2): 4.3765 µM | H2O2 generation, average value (KnmB2-Y215F+24, Time 3): 4.8322 µM | H2O2 generation, average value (KnmB2-Y215F+24, Time 4): 7.3420 µM | H2O2 generation, average value (KnmB2-Y215F+24, Time 5): 8.5825 µM | H2O2 generation, average value (KnmB2-Y215F+24, Time 8): 12.4110 µM | H2O2 generation, average value (KnmB2-Y215F+24, Time 10): 14.9169 µM | H2O2 generation, average value (KnmB2-Y215F+24, Time 15): 20.6983 µM | H2O2 generation, average value (KnmB2-Y215F+24, Time 20): 27.2428 µM | H2O2 generation, average value (KnmB2-Y215F+24, Time 30): 36.5225 µM | H2O2 generation, average value (KnmB2-Y215F+24, Time 40): 40.7285 µM | H2O2 generation, average value (KnmB2-Y215F+24, Time 60): 52.7400 µM
